Source: article PMC3978495, “Synthesis and Preliminary Evaluation of a 2-Oxoquinoline Carboxylic Acid Derivative for PET Imaging the Cannabinoid Type 2 Receptor” (Pharmaceuticals, 2014)
Read-outs that look alike come from different tables or passages of the source.

Experiments:
hCB1 = conditions: reported data; read-out: reported binding affinity towards CB1; cited from earlier work
human CB1 (hCB1) = target: T1, human CB1 (hCB1) (Homo sapiens, UniProt P21554); assay: Competition binding assay with [3H]CP-55,940, membranes of CHO-K1 cells transfected with hCB1; conditions: three independent experiments, [3H]CP-55,940 1.4 nM, read-out: binding affinity (Ki) towards CB1
T1 construct: purchased PerkinElmer, Waltham, MA, USA; host or cells: CHO-K1 cells (stably transfected), membrane preparation
Procedure: All samples were prepared in triplicates.

hCB2 = conditions: reported data; read-out: reported binding affinity towards human CB2; cited from earlier work
human CB2 (hCB2) = human CB2 (hCB2) (Homo sapiens, UniProt P34972); assay: Competition binding assay with [3H]CP-55,940, membranes of CHO-K1 cells transfected with hCB2
Procedure: Frozen membrane preparations from CHO-K1 cells transfected with human CB1 (hCB1) and CB2 (hCB2), respectively (PerkinElmer, Waltham, MA, USA), were thawed on ice and diluted to a final protein concentration of 1 µg/mL in assay buffer (50 mM TRIS/HCl, 1 mM EDTA (Applichem, Darmstadt, Germany), 3 mM MgCl2, pH 7.4, containing 0.05% bovine serum albumin, BSA). […] All samples were prepared in triplicates. After 90 min, 3 mL ice cold assay buffer was added and samples were immediately filtered through Whatman GF/C filters (pre-soaked in 0.05% polyethylenimine) and washed twice with 3 mL ice cold assay buffer.

[1] = In vivo dynamic PET imaging in Wistar rats; set-up: species or system rat
Procedure: PET scanning was performed with the GE VISTA eXplore PET/CT tomograph (Sedecal, Madrid, Spain). The scanner is characterized by high sensitivity (absolute central point source sensitivity of 4% for the […] energy windows) and an axial field of view of 4.8 cm. Male Wistar rats (278 ± 2 g, n = 2) were immobilized by isoflurane inhalation and the tracer was injected into a tail vein on the tomographic bed. Tracer accumulation in the spleen or brain were recorded by dynamic one-bed position PET scans over 60 min starting with the injection of 13 respectively 40 MBq (0.05 to 0.15 nmol) of [^11C]KP23. PET data was reconstructed by 3-dimensional FORE/2-dimensional OSEM in user-defined time frames with a voxel size of 0.3875 × 0.3875 × 0.775 mm. Singles and random corrections but no attenuation correction were applied. Image files were evaluated with the software PMOD v3.4 (PMOD Technologies Inc., Zurich, Switzerland). Time activity curves (TACs) of brain regions were generated with the implemented rat brain region of interest (ROI) template and TACs of the abdominal region with the respective ROIs generated by the PMOD segmentation tool. Spleen, liver and background TACs were confirmed by analysis of manually drawn regions of interest. Standardized uptake values (SUV) were calculated as tissue activities (Bq/cm^3), normalized to the injected dose per body weight (Bq/g).

[2] = rat, in vivo, iv; for percentage of parent tracer radioactivity in blood plasma: Wistar
Procedure: [^11C]KP23 was administered intravenously to a restrained Wistar rat (413 g) by tail vein injection (ca. 160 MBq). The animal was sacrificed by decapitation 30 min p.i. and blood and urine were collected. Whole blood was collected in heparin-coated tubes (BD Vacutainers, Plymouth, UK) and centrifuged at 5,000 g for 5 min, 4 °C. The proteins of the supernatant plasma and urine were precipitated by addition of an equal volume of acetonitrile and centrifuged at 5,000 g for another 5 min. The supernatants were filtered and analyzed by UPLC. For the determination of in vivo radiometabolites at 15 min p.i. blood samples were withdrawn from the tail vein opposite to the injection site.

[3] = In vitro stability in rat plasma; assay type: in vitro ADME; conditions: 37 °C, 40 min
Procedure: (§1) To test the plasma stability of the radioligand, 10 µL (4 MBq) of [^11C]KP23 solution were added to phosphate buffer (300 µL, 4 mM NaH2PO4/Na2HPO4, 155 mM NaCl, pH 7.4), mouse and rat plasma (300 µL), respectively. The mixture was vortexed and four aliquots of 70 µL were incubated at 37 °C. Ice cold acetonitrile (100 µL) was added to stop the enzymatic reactions at different time points (0, 10, 20 and 40 min). After centrifugation (10,000 g, 3 min), the supernatant was passed through a filter (0.45 µm, Minisart SRP 4, Sartorius Stedim Biotech, Goettingen, Germany) and analyzed by UPLC.

[4] = target: T2, CB2 in mouse spleen slices (Mus musculus, UniProt P47936); assay: In vitro autoradiography on mouse spleen slices; assay type: binding
T2 construct: performed on 20 µm tissue slices (rat/mouse spleen) adsorbed to SuperFrost Plus slides; from tissue; host or cells: mouse spleen slices (20 µm)
Procedure: (§2) In vitro autoradiography with [^11C]KP23 was performed on 20 µm tissue slices (rat/mouse spleen) adsorbed to SuperFrost Plus slides. Slices were thawed (10 min) on ice before pre-incubation with incubation buffer (50 mM TRIS/HCl, pH 7.4, containing 5% BSA) at 4 °C for 10 min. Excess solution was carefully removed and the tissue slices were dried in a ventilated hood for 10 min. Then slides were incubated with 0.6 or 0.2 nM [^11C]KP23 alone or together with specific CB2 agonist (GW405833, 1 µM) in incubation buffer. After incubation for 15 min at RT in a humid chamber, slides were washed twice with ice cold washing buffer (50 mM TRIS/HCl, pH 7.4, 1% BSA, 5% EtOH) for 2 min each and dipped twice in water. Dried slides were exposed to a phosphor imager plate for 30 min and the plate was scanned in a BAS5000 reader (Fujifilm, Dielsdorf, Switzerland).

[5] = In vitro stability in mouse plasma; assay type: in vitro ADME; conditions: 37 °C, 40 min
Procedure: as §1

CB2 in rat spleen slices = target: T3, CB2 in rat spleen slices (Rattus norvegicus, UniProt Q9QZN9); assay: In vitro autoradiography on rat spleen slices; assay type: binding
T3 construct: performed on 20 µm tissue slices (rat/mouse spleen) adsorbed to SuperFrost Plus slides; from tissue; host or cells: rat spleen slices (20 µm)
T3 sequence (Q9QZN9 1-360): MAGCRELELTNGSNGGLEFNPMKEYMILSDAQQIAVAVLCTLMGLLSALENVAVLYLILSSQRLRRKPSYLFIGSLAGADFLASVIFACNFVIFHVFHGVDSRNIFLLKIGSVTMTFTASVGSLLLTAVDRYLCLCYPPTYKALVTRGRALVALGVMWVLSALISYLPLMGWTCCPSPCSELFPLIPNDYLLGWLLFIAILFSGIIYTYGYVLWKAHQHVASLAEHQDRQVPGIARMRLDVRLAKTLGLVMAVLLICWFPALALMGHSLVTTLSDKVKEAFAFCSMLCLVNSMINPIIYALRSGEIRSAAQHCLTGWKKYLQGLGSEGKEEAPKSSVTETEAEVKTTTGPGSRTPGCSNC
Procedure: as §2

[6] = In vitro stability in phosphate buffer (PBS); assay type: physicochemical; conditions: PBS pH 7.4, 37 °C, 40 min
Procedure: as §1

T2 sequence (P47936 whole entry): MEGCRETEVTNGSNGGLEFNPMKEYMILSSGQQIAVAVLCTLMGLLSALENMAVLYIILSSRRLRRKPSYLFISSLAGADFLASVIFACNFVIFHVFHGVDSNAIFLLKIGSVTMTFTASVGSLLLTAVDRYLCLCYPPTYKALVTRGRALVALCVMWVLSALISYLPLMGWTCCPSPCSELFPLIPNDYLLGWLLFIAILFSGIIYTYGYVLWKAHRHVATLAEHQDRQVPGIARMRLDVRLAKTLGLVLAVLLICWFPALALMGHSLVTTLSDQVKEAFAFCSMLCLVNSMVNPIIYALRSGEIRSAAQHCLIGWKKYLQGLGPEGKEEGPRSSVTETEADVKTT
human CB2 (hCB2), sequence (P34972 whole entry): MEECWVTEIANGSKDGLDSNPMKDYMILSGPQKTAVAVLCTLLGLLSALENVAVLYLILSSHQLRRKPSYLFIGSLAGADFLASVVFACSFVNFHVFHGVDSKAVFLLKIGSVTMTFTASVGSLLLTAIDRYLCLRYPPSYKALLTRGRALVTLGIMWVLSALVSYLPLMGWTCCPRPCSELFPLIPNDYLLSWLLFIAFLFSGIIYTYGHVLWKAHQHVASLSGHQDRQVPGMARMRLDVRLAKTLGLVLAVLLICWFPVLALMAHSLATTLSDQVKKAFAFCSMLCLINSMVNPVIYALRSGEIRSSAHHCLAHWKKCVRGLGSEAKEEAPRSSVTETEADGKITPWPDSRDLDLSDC
T1 sequence (P21554 whole entry): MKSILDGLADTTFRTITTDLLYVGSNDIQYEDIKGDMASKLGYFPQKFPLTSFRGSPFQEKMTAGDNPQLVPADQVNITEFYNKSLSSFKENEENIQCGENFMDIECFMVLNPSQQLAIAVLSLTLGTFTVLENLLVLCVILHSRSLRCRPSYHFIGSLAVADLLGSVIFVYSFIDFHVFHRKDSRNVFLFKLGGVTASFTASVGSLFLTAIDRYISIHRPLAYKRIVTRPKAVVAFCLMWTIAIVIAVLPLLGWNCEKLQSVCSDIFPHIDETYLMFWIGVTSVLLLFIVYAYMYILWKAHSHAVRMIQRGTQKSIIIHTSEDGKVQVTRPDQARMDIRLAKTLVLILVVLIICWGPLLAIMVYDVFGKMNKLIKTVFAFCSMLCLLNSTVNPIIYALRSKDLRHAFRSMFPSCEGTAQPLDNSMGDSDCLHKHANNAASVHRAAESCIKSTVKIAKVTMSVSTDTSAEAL

Structure (SMILES) | Ki (hCB1) | Ki (human CB1 (hCB1)) | Ki (hCB2) | Ki (human CB2 (hCB2)) | brain uptake ([1]; healthy Wistar rat, i.v., PET, region of interest TAC analysis) | initial period of steadily increasing activity concentration in spleen, then slow washout ([1]; male, Wistar, rat, in vivo, iv) | time of radioactivity peak in liver ([1]; male, Wistar, rat, in vivo, iv) | spleen uptake ([1]; rat, in vivo, iv) | percentage of parent tracer radioactivity in blood plasma ([2]; 15 min) | percentage of parent tracer radioactivity in blood plasma ([2]; 30 min) | number of radiometabolites in blood plasma (more hydrophilic than parent) [2] | plasma stability (radioactive degradation products) [3] | non-specific binding in spleen tissue ([4]; mouse spleen slices (Figure 1 B2), with 1 μM GW4058233) | binding to CB2 in autoradiography ([4]; mouse spleen slices, 0.6 nM tracer, blocked by excess (1 μM) GW4058233) | plasma stability (radioactive degradation products) [5] | non-specific binding in spleen tissue (CB2 in rat spleen slices; rat spleen slices (Figure 1 A2), with 1 μM GW4058233) | binding to CB2 in autoradiography (CB2 in rat spleen slices; rat spleen slices, 0.6 nM tracer, blocked by excess (1 μM) GW4058233) | stability (radioactive degradation products) [6]
CCCCOc1c(OC)ccc2cc(C(=O)NCC(F)c3ccccc3)c(=O)[nH]c12 (stereo not drawn) [KP23, 8-butoxy-N-(2-fluoro-2-phenylethyl)-7-methoxy-2-oxo-1,2-dihydroquinoline-3-carboxamide] | > 10000 nM | > 10000 nM | 0.8 ± 0.3 nM | 6.8 ± 5.8 nM |  |  |  |  |  |  |  |  |  |  |  |  |  | 
CCCCOc1c(O[11CH3])ccc2cc(C(=O)NCC(F)c3ccccc3)c(=O)[nH]c12 (stereo not drawn) [[^11C]KP23] |  |  |  |  | low uptake | 8 min p.i. | around 4 min p.i. | high spleen uptake | 40% | 25% | two to three | No radioactive degradation products | relatively high non-specific binding | specific binding | No radioactive degradation products | relatively high non-specific binding | specific binding | No radioactive degradation products
